Laboratory results reported in patent publication US9745357B2, “Peptides used for treating cancers and, in particular, chronic lymphoid leukaemia” (Centre National de la Recherche Scientifique, priority 2009, dated 2017).
Entries after “also recorded” stand apart in the source; their conditions may differ. No end group written: not given here.

Key:
[1] = tested on: cap-dependent translation (eIF4E-dependent); test: Effect of the peptides on translation of capped luciferase mRNA in rabbit reticulocyte lysate; type: biochemical; conditions: 50 μM peptide, compared with DMSO = 100%, FIG. 2
Description: The peptides having the IRS motif and the sequences of 4EBPlike type (A1WT, BPSgWT, and BP2WT) or the mutant sequences of 4EPBlike type (A1YALA, BPSgYALA, BP2YALA) are incubated in rabbit reticulocyte lysate containing capped mRNAs encoding luciferase, an enzyme of which the activity can be easily assayed. The translational activity is directly proportional to the activity of the luciferase produced. The translational activity in the presence of peptide is compared with that obtained during the addition of an equivalent volume of DMSO, considered to be 100%.
The peptides were produced, purified by HPLC (purity>95%), and freeze-dried by Thermofisher Scientific. The peptides were then dissolved at 10 mM in DMSO.
The capped mRNAs encoding Renilla luciferase (Luc R) were produced by the T7 Message Machine Kit system (Ambion) from the pGb-Eg2-410Δ2-hxG-A65 plasmid linearized with EcoRV (Legagneux V, Omilli F, Osborne HB (1995) Substrate-specific regulation of RNA deadenylation in Xenopus embryo and activated egg extracts. RNA 1: 1001-1008).
The Luc R mRNAs were translated for one hour at 30° C. in rabbit reticulocyte lysate (Flexi Rabbit Reticulocyte Lysate System, Promega) in the presence of 50 μM of peptide. The luciferase activity was determined using the Renilla luciferase assay (Promega) on the Tristar LB941 luminometer (Berthold).
A capped mRNA (having a cap at the 5′ end) encoding luciferase, a protein which can be easily assayed by measuring its activity, was translated in the presence of these various peptides in rabbit reticulocyte lysate (FIG. 2). The luciferase activity measured is directly proportional to the amount of luciferase protein produced and therefore to the cap-dependent translational activity. Since the peptides are dissolved in DMSO, it was important to test the effect of DMSO on the translation. […] The translational activity in the presence of peptide was compared with that obtained when an equal volume of DMSO is added, considered to be equal to 100%.

[2] = tested on: B lymphocytes from patients suffering from chronic lymphoid leukemia (CLL); conditions: for effect on percentage cell survival / cell effect CLL 40 (survival): 40 μM peptide; for effect on percentage cell survival: 4 H and 24 H, FIG. 3; for cell effect CLL 40 (survival): 4 hours of culture, cells not labeled with annexin or propidium iodide; for action of the peptide on cell survival, in words, cell type not given: Example 6 (CLL cells, control T lymphocytes, Jok cells)
Description: Peripheral blood B lymphocytes taken from patients suffering from CLL and then purified on a Ficoll cushion and placed in culture are incubated in the presence of […] of the peptides described for FIG. 2. The percentage cell survival after 4 hours (gray column) or 24 hours (white column) of culture corresponds to the percentage of cells labeled neither with annexin nor with propidium iodide, evaluated by flow cytometry.
The CLL B lymphocytes were obtained from peripheral blood of 18 different patients suffering from chronic lymphoid leukemia. […] The samples were taken in the Brest hospital center, in the hematology department. The blood samples were taken after informing the patients and obtaining their informed consent.
The lymphocytes, mononuclear cells, were isolated from the heparinized peripheral blood samples by Ficoll-Hypaque (LSM 1077 lymphocyte, euro-bio) centrifugation. The red blood cells were lyzed by incubation for 10 min in VersaLyse Lysing Solution (Beckman Coulter). The mononuclear cells are obtained after 2 washes in culture medium (RPMI1640, Gibco BRL).
(§1) The cells were cultured in a culture medium composed either of RPMI 1640 (B lymphocytes) or of DMEM (COS7, HCT116, HGT1, 293, HeLa) containing 10% of FCS (fetal calf serum, 1% of penicillin-streptomycin and 1% of glutamine, Gibco BRL). The cells are distributed in a 24-well plate and cultured at 37° C. in a humid atmosphere under 5% CO2.
(§2) 400 μl of cell suspension (1×10^6 cells/ml) per well were treated for 4 h or 24 h with various concentrations of peptides. The test for activity of the peptides in the presence of emetine (FIG. 6) was carried out by preincubating the cells with 100 μM of emetine for one hour before the addition of peptide.
(§3) After the cells have been washed with PBS, they were analyzed using the Annexin V-FITC IP system according to the supplier's recommendations (Beckman Coulter).
The cells taken from patients suffering from chronic lymphoid leukemia were purified on a Ficoll cushion. […] The cells were placed in culture in RPMI medium in the presence of 10% FCS (fetal calf serum). The peptides were added directly to the culture medium. These peptides comprise the IRS sequence (the amino acid sequence of which is RYIRS) which is known to allow the penetration of peptides into B lymphocytes in culture (Dong et al., 2005). […] The cells which survive the treatment are those which are labeled neither with annexin nor with propidium iodide.

[3] = tested on: Jok cells (cell line derived from B lymphocytes); test: Cell survival of Jok cells, annexin/propidium iodide flow cytometry; type: cell-based, human; conditions: for cell effect Jok 20 (survival): 20 μM peptide; for cell effect Jok 20 (survival) / cell effect Jok 40 (survival): 4 hours of culture, cells not labeled with annexin or propidium iodide; for cell effect Jok 40 (survival): 40 μM peptide
Description: The cells are treated as indicated for FIG. 7, with the CLL cells, control T lymphocytes and Jok lymphocytes, which are incubated with the A1 WT IRS peptide and derivatives thereof described in table 1. The Jok cells were incubated either with 20 μM (JOK 20) or with 40 μM (JOK 40) of each of the peptides. In the interests of simplifying the legend, the A1 WT IRS peptide is referred to as “WT”. Likewise, the derivatives thereof are referred to by the name of the mutations (A1 K3I IRS is referred to as “K3I”, for example).
as §1, §2, §3
The peptides were tested on B lymphocytes from patients suffering from chronic lymphoid leukemia, control T lymphocytes, or Jok cells (cell line derived from B lymphocytes). The experiment was repeated three times for each type of cell tested.

[4] = tested on: control T lymphocytes (patients suffering from hemochromatosis); test: Cell survival of control T lymphocytes, annexin/propidium iodide flow cytometry; type: cell-based, human; conditions: 40 μM peptide, 4 hours of culture, cells not labeled with annexin or propidium iodide
Description: FIG. 7: Activity of the A1WT peptide on cells of lymphocytic, lymphoid, gastric, colonic or renal origin The cells are prepared and placed in culture (see Materials and Methods) and then incubated for 4 H with the A1WT or A1 YALA peptide. The percentage cell survival corresponds to the percentage of cells labeled neither with annexin nor with propidium iodide, evaluated by flow cytometry. The names of the pathological conditions from which the patients from whom the samples are taken are suffering are indicated under the figure. The control T (L.T.) and B (L.B.) lymphocytes are taken from patients suffering from a disease not related to a lymphocytic pathological condition (hemochromatosis).
The control B lymphocytes and T lymphocytes originate from peripheral blood samples from patients suffering from hemochromatosis, provided by the CTS transfusion center in Brest. The B and T lymphocytes were isolated using the Rosett-Sep kit (Stemcell Technologies) according to the supplier's recommendations.
as §1, §2, §3

[5] = molecular target: T1, eIF4E (Mus musculus, UniProt P63073); test: Test for interaction of YFP-fused peptide sequences with eIF4E (GST-eIF4E beads, affinity chromatography); type: binding; conditions: 35S Met-labeled YFP fusion produced in rabbit reticulocyte lysate; SDS-PAGE, autoradiography; FIG. 1
T1 construct: made in house; host or cells: E. coli BL21DE3 (Novagen), pGEX-4T-1 vector
Source text: The eIF4E protein fused to glutathione-S-transferase (GST-eIF4E) or GST alone (GST), used as a control, are produced in bacteria, purified and immobilized on glutathione beads. The YFP, YFP-A1 WT and YFP-A1 YALA proteins were produced in rabbit reticulocyte lysate in the presence of 35S methionine and chromatographed on the GST-eIF4 or GST beads. The proteins retained on the beads are eluted and analyzed by SDS-PAGE followed by autoradiography.
The plasmids encoding the YFP protein-peptides were obtained by amplification of the reading frame of the YFP protein (enhanced yellow-green variant of the Aequorea victoria green fluorescent protein) from the pEYFP-C1 plasmid (Clontech). The 5′ primer used (sequence described below) made it possible to insert a T7 promoter (underlined sequence) upstream of the reading frame of YFP. […] The pGEX 4E plasmid was obtained by inserting the reading frame of the mouse eIF4E protein at the BamHI/EcoRI sites of the PGEX-4T-1 vector (Amersham pharmacia biotech). […] After washing, the proteins were eluted with SDS loading buffer, and analyzed, after an SDS-PAGE gel, by autoradiography (Typhoon Phospholmager, Amersham Pharmacia Biotech).
Biochemical validation of the peptides identified was then carried out by means of affinity chromatography approaches. […] The ability of these peptides to interact with eIF4E was then analyzed by affinity chromatography. […]

T1 sequence (P63073 whole entry, the tested form may be a part): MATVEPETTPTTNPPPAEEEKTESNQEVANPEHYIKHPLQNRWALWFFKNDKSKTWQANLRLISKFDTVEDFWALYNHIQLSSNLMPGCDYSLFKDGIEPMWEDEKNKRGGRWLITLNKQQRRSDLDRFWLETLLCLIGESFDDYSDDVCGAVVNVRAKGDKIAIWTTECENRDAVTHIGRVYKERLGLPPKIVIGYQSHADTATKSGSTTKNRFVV

In the case of “RIIADRKFAADRRYIRS [BP2 YALA IRS, YALA mutant control of BP2 WT IRS]”, the “inhibition of translation (luciferase activity)” value (shortened to “inhibition of translation”) [1] is reported as “does not cause any inhibition of the translation”.

For “RIIYDRKFLLDRRYIRS [BP2 WT IRS, reference compound]”, the “inhibition of translation” value [1] was “strong inhibition of the translation”, the “inhibition of translation” value ([1]; listed as BP2) was “effectively inhibits eIF4E-dependent translation” and the “effect on percentage cell survival” value [2] was “the percentage survival did not decrease”. The “cell effect CLL 40 (survival)” value [2] was “− (−: survival >50%)”, the “effect of the peptide on cell mortality, in words (relative to A1 WT IRS)” value ([2]; 40 μM, 4 hours, FIG. 9) was “has no effect” and the “action of the peptide on cell survival, in words, cell type not given” value [2] was “has no effect on cell survival”. The “cell effect Jok 20 (survival)” value [3] was “− (−: survival >50%)”, the “cell effect Jok 40 (survival)” value [3] was “− (−: survival >50%)” and the “effect of the peptide on cell mortality, in words (relative to A1 WT IRS)” value ([3]; concentration not given (20 or 40 μM), 4 hours, FIG. 9) was “has no effect”.

“RRKAGRDFAARFRYIRS [A1 YALA IRS, reference compound]” was tested, and the “inhibition of translation” value [1] was “does not inhibit the translation”, the “effect on percentage cell survival” value [2] was “has no effect” and the “cell effect CLL 40 (survival)” value [2] was “− (−: survival >50%)”. The “action of the peptide on cell survival, in words, cell type not given” value [2] was “has no effect”, the “cell effect LT 40 (survival)” value [4] was “− (−: survival >50%)” and the “cell effect Jok 20 (survival)” value [3] was “− (−: survival >50%)”. The “cell effect Jok 40 (survival)” value [3] was “− (−: survival >50%)”.

“YFP-A1 WT: YFP, yellow fluorescent protein, fused to a peptide derived from the human Angel 1 protein, of sequence RRKYGRDFLLRF (SEQ ID No. 3) (also: fused to YFP)” was tested, and the “interaction with eIF4E (retention on GST-eIF4E beads)” value [5] was “associates more strongly with eIF4E than the other peptides tested; also recorded: is retained on GST-eIF4E beads”.
